Measurements taken from patent US20030032003A1, “IN VIVO SELECTION” (priority 2000, published 2003).
Where two headings read alike, the source gives them in different places.

Key:
[1] = system: Hprt −/− (Hprt deficient) mice; assay: Acute toxicity of 6TG, approximate lethal dose; details: for body weight, percentage of the body weight before the experiment / survival: Hprt −/−, 14 days
[2] = system: T cells from Lesch Nyhan syndrome patients and Hprt deficient brothers; details: cited from earlier work
[3] = system: Hprt −/− mice; assay: Biochemical analysis of mouse serum after 6TG; assay type: in vivo; details: serum 14 days after treatment
Experimental: (§1) Serum biochemistry parameters analyzed included blood urea nitrogen (BUN), aspartate amino transferase (AST), alanine amino transferase (ALT), creatine kinase (CK), and alkaline phosphatase (AP). The analyses were performed at Tufts University Veterinary Medical Diagnosis Laboratory with the chemical analyser Hitachi 747. Blood was collected from the posterior vena cava of Hprt deficient mice that were either treated with water, 25, 500, or 720 mg/kg 6TG i.p. and wildtype mice administered 25 mg/kg 6TG.
[…] Serum samples taken 14 days after treatment were evaluated for the levels of blood urea nitrogen (BUN), aspartate amino transferase (AST), alanine amino transferase (ALT), creatine kinase (CK) and alkaline phosphatase (AP). Elevated BUN is associated with dehydratation and/or renal insufficiency. Elevated activities of ALT and AST are characteristic for liver damage particularly necrosis, cirrhosis and/or hepatitis and also muscle trauma or myocardial infarction or myositis. Elevated AP is associated mostly with increased bone marrow metabolism and also with hapatocellular damage during hepatitis. CK is predominantly located in muscles and therefore its increased activities are consequence of muscular trauma, myocardial infarction or myopathic disorders.

[4] = system: embryos of C57BL6/J Hprt −/− females mated with wildtype Hprt +/o males; assay type: in vivo; details: for Offspring ♀ (Hprt +/−, sensitive) / Offspring ♂ (Hprt −/o, resistant): three i.p. injections of 20 mg/kg in 24 hrs intervals during gestation
Experimental: The animals were housed in standard plastic microisolator cages with wood-chip bedding. The room was maintained at 22° C. and 70% humidity and the light cycle was 12 hours. Water and mouse diet No:5015 (PMI Feeds, Inc., St. Louis, Mo.) was supplied ad libitum. All housing and treatment protocols were reviewed and approved by an institutional Animal Care Committee.
Hprt −/− females (5-8 weeks old) were mated with wildtype males and the presence of vaginal plugs was examined daily. The day when a plug appeared was considered to be day 1 of pregnancy and the male was separated. The pregnant dams were treated with three i.p. injections of 6-thioguanine (20 mg/kg) or in control matings with saline starting […] in 24 hrs intervals. Pregnant mice were examined daily until term. The gender of offsprings was first determined 24 days after delivery and confirmed at the time of weaning (4 weeks of age).
An experiment was designed to investigate whether one could select against Hprt wildtype embryos with 6-thioguanine. Female mice C57BL6/J Hprt −/− were mated with wildtype Hprt +/o males. Since the Hprt gene is located on the X chromosome the resulting male offspring will be Hprt −/o and therefore resistant to 6-thioguanine (6TG). On the other hand, female offspring will be Hprt +/− and thus sensitive to 6TG. 6TG (Sigma) was injected i.p. in three subsequential doses (20 mg/kg each) in 24 hrs intervals starting on the third day of gestation. Mice were screened two times daily for possible toxic effects.

[5] = system: Hprt +/+ mice; assay: Biochemical analysis of mouse serum after 6TG; assay type: in vivo; details: 25 mg/kg single i.p., serum 14 days after treatment
Experimental: as §1
Hprt wildtype mice were treated with the sublethal dose of 25 mg/kg 6TG and Hprt mutant mice were treated with the sublethal doses of […] 6TG. Serum samples taken 14 days after treatment were evaluated for the levels of blood urea nitrogen (BUN), aspartate amino transferase (AST), alanine amino transferase (ALT), creatine kinase (CK) and alkaline phosphatase (AP). Elevated BUN is associated with dehydratation and/or renal insufficiency. Elevated activities of ALT and AST are characteristic for liver damage particularly necrosis, cirrhosis and/or hepatitis and also muscle trauma or myocardial infarction or myositis. Elevated AP is associated mostly with increased bone marrow metabolism and also with hapatocellular damage during hepatitis. CK is predominantly located in muscles and therefore its increased activities are consequence of muscular trauma, myocardial infarction or myopathic disorders.

[6] = system: Hprt +/+ bone marrow of recipient mice; assay: Bone marrow replacement, Southern blot analysis of Y (donor) DNA; assay type: in vivo, mouse
From the text: The replacement of Hprt positive bone marrow with Hprt deficient bone marrow was examined by Southern blot analysis. Since recipients animals were females and donor bone marrow was of male origin, we have determined the fraction of cells containing chromosome (Y) in hematopoetic organs (bone marrow, spleen, thymus) and peripheral tissue (tail) in recipient animals. The Y chromosome was detected in 6TG treated and control animals.
Next Applicants tested whether “in vivo selection” without whole body irradiation can lead to complete bone marrow replacement. The wild type recipient mice were pretreated with 6TG (10 mg/kg twice in 48 hrs interval) or with sterile PBS and the Hprt deficient bone marrow was transplanted. The animals in the experimental group were 6TG pretreated followed with the 6TG in vivo selection protocol (described herein above). The control animals (6TG or PBS pretreated) were treated with sterile PBS buffer instead of 6TG. The degree of bone marrow replacement was evaluated by Southern blot analysis in hematopoetic tissues (bone marrow, spleen, thymus) and blood at the end of the 7th week post transplantation.

In the case of `Nc1nc(S)c2[nH]cnc2n1` [6TG, 2-amino-6-merkaptopurine], the approximate lethal dose ([1]; Hprt −/− animals, single i.p.) is reported as 1148 mg/kg, the “increase of approximate lethal dose over the wildtype strain” value ([1]; Hprt −/− vs wildtype) is reported as 23 fold and the “body weight, percentage of the body weight before the experiment” value (from here on “body weight, percentage”) ([1]; 25 mg/kg single i.p.) is reported as 101%. The survival ([1]; 25 mg/kg single i.p.) was “surv (surv, animals survived the 14 days period)”, the “body weight, percentage” value ([1]; 50 mg/kg single i.p.) was 102% and the survival ([1]; 50 mg/kg single i.p.) was “surv (surv, animals survived the 14 days period)”. The “body weight, percentage” value ([1]; 100 mg/kg single i.p.) was 103%, the survival ([1]; 100 mg/kg single i.p.) was “surv (surv, animals survived the 14 days period)” and the “body weight, percentage” value ([1]; 150 mg/kg single i.p.) was 101%. For the same molecule, the survival ([1]; 150 mg/kg single i.p.) was “surv (surv, animals survived the 14 days period)”, the “body weight, percentage” value ([1]; 225 mg/kg single i.p.) was 100% and the survival ([1]; 225 mg/kg single i.p.) was “surv (surv, animals survived the 14 days period)”. For the same molecule, the “body weight, percentage” value ([1]; 338 mg/kg single i.p.) was 101%, the survival ([1]; 338 mg/kg single i.p.) was “surv (surv, animals survived the 14 days period)” and the “body weight, percentage” value ([1]; 508 mg/kg single i.p.) was 99%. The survival ([1]; 508 mg/kg single i.p.) was “surv (surv, animals survived the 14 days period)”, the “body weight, percentage” value ([1]; 720 mg/kg single i.p.) was 101% and the survival ([1]; 720 mg/kg single i.p.) was “surv (surv, animals survived the 14 days period)”. The “body weight, percentage” value ([1]; 1148 mg/kg single i.p.) was 69%, the survival ([1]; 1148 mg/kg single i.p.) was 8.5 days and the “body weight, percentage” value ([1]; 1714 mg/kg single i.p.) was 93%. The survival ([1]; 1714 mg/kg single i.p.) was 4 days, the “body weight, percentage” value ([1]; 2571 mg/kg single i.p.) was 95% and the survival ([1]; 2571 mg/kg single i.p.) was 4 days. For the same molecule, the “6TG resistance higher than cells from normal individuals” value ([2]; T cells from Lesch Nyhan syndrome patients) was 300 fold, the “6TG resistance greater than normal individuals” value ([2]; T cells of Hprt deficient brothers without signs of the disease) was 10 fold and the ALT ([3]; 25 mg/kg single i.p.) was 28.7 ± 14.9 u/l. For the same molecule, the AP ([3]; 25 mg/kg single i.p.) was 78.7 ± 22.5 u/l, the AST ([3]; 25 mg/kg single i.p.) was 53.3 ± 17.5 u/l and the BUN ([3]; 25 mg/kg single i.p.) was 18.5 ± 0.6 mg/dL. For the same molecule, the CK ([3]; 25 mg/kg single i.p.) was 67.7 ± 41.2 u/l, the ALT ([3]; 500 mg/kg single i.p.) was 14.3 ± 3.5 u/l and the AP ([3]; 500 mg/kg single i.p.) was 71.0 ± 38.0 u/l. For the same molecule, the AST ([3]; 500 mg/kg single i.p.) was 50. ± 11.8 u/l, the BUN ([3]; 500 mg/kg single i.p.) was 18.0 ± 1.0 mg/dL and the CK ([3]; 500 mg/kg single i.p.) was 52.0 ± 23.3 u/l. The ALT ([3]; 720 mg/kg single i.p.) was 13.7 ± 1.5 u/l, the AP ([3]; 720 mg/kg single i.p.) was 78.7 ± 20.5 u/l and the AST ([3]; 720 mg/kg single i.p.) was 43.3 ± 14.0 u/l. The BUN ([3]; 720 mg/kg single i.p.) was 20.0 ± 2.7 mg/dL, the CK ([3]; 720 mg/kg single i.p.) was 37.3 ± 11.6 u/l and the “Offspring ♀ (Hprt +/−, sensitive)” value ([4]; Dam 1T) was 0. The “Offspring ♂ (Hprt −/o, resistant)” value ([4]; Dam 1T) was 4, the “Offspring ♀ (Hprt +/−, sensitive)” value ([4]; Dam 2T) was 0 and the “Offspring ♂ (Hprt −/o, resistant)” value ([4]; Dam 2T) was 2. The “toxicity to the dams” value ([4]; Hprt −/− dams, three doses 20 mg/kg i.p.) was “did not cause any apparent toxic symptoms or discomfort to the dams”, the male offspring delivered ([4]; two 6TG treated dams together) was 6 and the ALT [5] was 197 ± 66.8 u/l. For the same molecule, the AP [5] was 50.0 ± 33.4 u/l, the AST [5] was 256.3 ± 73.9 u/l and the BUN [5] was 45.0 ± 24.6 mg/dL. The CK [5] was 73.3 ± 13.9 u/l, the bone marrow replacement ([6]; 6TG in vivo selection protocol, whether or not irradiation was used, end of 7th week post transplantation) was 100% and the “engraftment of Hprt deficient bone marrow cells (containing Y chomosome)” value ([6]; irradiated recipients, 6TG selection in comparison to control animals) was “significantly increased engraftment”.
